Patent publication US6288091A, “Antiherpes virus compounds and methods for their preparation and use” (Boehringer Ingelheim Ltd., priority 1999, dated 2001)
Read-outs that look alike come from different tables or passages of the source.

How the values were obtained:
[1] = test system: HCMV (strain AD169); experiment: Inhibition of HCMV replication, plaque reduction assay (PRA, Hs-68 cells); format: cell-based, Human Cytomegalovirus (HCMV); details: read-out: PRA CMV EC50
Method: (§1) C) Inhibition of Human Cytomegalovirus (HCMV) Replication
(§2) The effect of compounds on the replication of HCMV has been measured by using an ELISA-based assay (ELISA) and a plaque reduction assay (PRA).
(§3) Hs-68 cells (ATCC # CRL 1635) were seeded in 12-well plates at 83,000 cells/well in 1 mL of DMEM medium (Gibco Canada Inc.) supplemented with 10% fetal bovine serum (FBS, Gibco Canada Inc.). The plates were incubated for 3 days at 37° to allow the cells to reach 80-90% confluency prior to the assay.
(§4) The medium was removed from the cells by aspiration. The cells were then infected with approximately 50 PFU of HCMV (strain AD169, ATCC VR-538) in DMEM medium supplemented with 5% inactivated FBS (assay medium). The virus was allowed to adsorb to cells for 2 h at 37°. Following viral adsorption, the medium was removed from the wells by aspiration. The cells were then incubated with or without 1 mL of appropriate concentrations of test reagent in assay medium. After 4 days of incubation at 37°, the medium was exchanged with fresh medium containing test compound and 4 days later the cells were fixed with 1% aqueous formaldehyde and stained with a 2% crystal violet solution in 20% ethanol in water. Microscopic plaques were counted using a stereomicroscope. Drug effects were calculated as a percent reduction in the number of plaques in the presence of each drug concentration compared to the number observed in the absence of drug. Ganciclovir was used as a positive control in all experiments.
(§5) The EC50 values obtained according to this assay for certain thiazolyl derivatives of this invention are listed in the following tables under the heading PRA CMV.

[2] = test system: HCMV (strain AD169); experiment: Inhibition of HCMV replication, ELISA assay (Hs-68 cells); format: cell-based, Human Cytomegalovirus (HCMV); details: read-out: ELISA CMV EC50
Method: as §1, §2
Hs-68 cells (ATCC # CRL 1635) were seeded in 96 well microtiter plates at 10,000 cells/well in 100 μL of DMEM medium (Gibco Canada Inc.) supplemented with 10% fetal bovine serum (FBS, Gibco Canada Inc.). The plates were incubated for 3 days at 37° to allow the cells to reach 80-90% confluency prior to the assay.
The medium was removed from wells by aspiration. The cells then were infected at a multiplicity of infection (MOI) of 0.01 PFU/cell with 50 μL of HCMV (strain AD169, ATCC VR-538) in DMEM medium supplemented with 5% heat inactivated FBS (assay medium). The virus was allowed to adsorb to cells for 2 h at 37°. Following viral adsorption, the medium was removed from the wells by aspiration. The cells were washed twice with 200 μL of assay medium to remove unabsorbed virus. The cells were then incubated with or without 100 μL of appropriate concentrations of test reagent in assay medium. After 8 days of incubation at 37°, the extent of viral replication was determined by an ELISA assay which detects the late structural protein p28 of HCMV.
Eight days after infection, the medium was aspirated from the wells. Non-specific binding sites were blocked by adding 200 μL of phosphate buffered saline containing 1% (w/v) bovine serum albumin (blocking buffer) to each well and incubating the plates for 30 min at room temperature. After removal of the blocking buffer by aspiration, the cells were fixed with 100 μL of cold ethanol-acetone solution (95:5) per well. The plates were placed at -20° for 30 min. The plates were washed 4 times with phosphate buffered saline containing 0.05% (v/v) polyoxyethylene sorbitan monolaurate (Tween®). Thereafter, 100 μL of mAb UL99 (Advanced Biotechnologies Inc., #13-130-100) recognizing HCMV protein p28 was added to each wells and plates were incubated for 2 h at room temperature. The plates were washed four times with 200 μL of the above-noted phosphate buffered saline/Tween-20® solution. The cells were then incubated with 100 μL of sheep anti-mouse IgGγ horseradish peroxidase conjugated for 2 h at room temperature. The plates were then washed four times with 200 μL of above-noted phosphate buffered saline/Tween-20® solution. Thereafter, 100 μL of ortho phenylenediamine dihydrochloride (OPD, Gibco Canada Inc.) solution was added to each well and the plates were agitated on a microplate shaker for 30 min in the dark. Color development was monitored at 450 nm using a microplate spectrophotometer.
The SAS program was used to calculate the % inhibition of viral replication and to generate EC50 values.
The EC50 values obtained according to this assay method for certain thiazolylphenyl derivatives of this invention are listed in the following tables under the heading ELISA CMV.

[3] = test system: HSV-1 strain F or KOS; experiment: Inhibition of herpes simplex virus (HSV-1) replication in cell culture (BHK-21 cells, glycoprotein C ELISA); format: cell-based
Outline: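 BHK-21 clone 13 cells infected with HSV-1 F or KOS at MOI 0.05 PFU/cell for 1 h at 37°, washed, then treated with compound in α-MEM/2% FBS for 24 h. Late glycoprotein C quantified by ELISA (mAb C11, HRP/OPD, 450 nm); EC50 from % inhibition.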

[4] = Inhibition of HCMV replication, plaque reduction assay (PRA, Hs-68 cells); format: cell-based, Human Cytomegalovirus (HCMV); details: human, read-out: Cytotoxic at this concentration (footnote *, PRA CMV)
Method: as §1, §2, §3, §4, §5

[5] = target: T1, HSV-1 helicase-primase (Human herpesvirus 1, UniProt P10189+P10236); experiment: HSV-1 DNA-dependent ATPase assay (inhibition of HSV-1 helicase-primase); format: biochemical
T1 construct: made in house; host or cells: Sf21 insect cells triply infected with recombinant baculoviruses (UL5, UL8, UL52)
Outline: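 Holoenzyme (UL5/UL8/UL52) expressed in baculovirus-infected Sf21 cells and purified, used at 3 μg/mL with 4 mM ATP and 25 μM primed M13 ssDNA in HEPES pH 7.5, 5.5 mM MgCl2, 3.3% DMSO. Incubated 20 min at 34°. Released phosphate read by malachite green at 650 nm, and activity taken from net absorbance with versus without inhibitor.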

[6] = Human betaherpesvirus 5, AD169, Hs68, Group 1 Table 6 entries
[7] = Human betaherpesvirus 5, AD169, Hs68, Group 2 Table 1 entries
[8] = Human alphaherpesvirus 1, BHK-21, Group 2 Table 1 entries
[9] = Human betaherpesvirus 5, AD169, Hs68, Group 1 Table 2 entries
[10] = Human alphaherpesvirus 1, BHK-21, Group 1 Table 2 entries
[11] = Human betaherpesvirus 5, AD169, Hs68, Group 1 Table 1 entries
[12] = Human alphaherpesvirus 1, BHK-21, Group 1 Table 1 entries

T1 sequence (P10192 whole entry): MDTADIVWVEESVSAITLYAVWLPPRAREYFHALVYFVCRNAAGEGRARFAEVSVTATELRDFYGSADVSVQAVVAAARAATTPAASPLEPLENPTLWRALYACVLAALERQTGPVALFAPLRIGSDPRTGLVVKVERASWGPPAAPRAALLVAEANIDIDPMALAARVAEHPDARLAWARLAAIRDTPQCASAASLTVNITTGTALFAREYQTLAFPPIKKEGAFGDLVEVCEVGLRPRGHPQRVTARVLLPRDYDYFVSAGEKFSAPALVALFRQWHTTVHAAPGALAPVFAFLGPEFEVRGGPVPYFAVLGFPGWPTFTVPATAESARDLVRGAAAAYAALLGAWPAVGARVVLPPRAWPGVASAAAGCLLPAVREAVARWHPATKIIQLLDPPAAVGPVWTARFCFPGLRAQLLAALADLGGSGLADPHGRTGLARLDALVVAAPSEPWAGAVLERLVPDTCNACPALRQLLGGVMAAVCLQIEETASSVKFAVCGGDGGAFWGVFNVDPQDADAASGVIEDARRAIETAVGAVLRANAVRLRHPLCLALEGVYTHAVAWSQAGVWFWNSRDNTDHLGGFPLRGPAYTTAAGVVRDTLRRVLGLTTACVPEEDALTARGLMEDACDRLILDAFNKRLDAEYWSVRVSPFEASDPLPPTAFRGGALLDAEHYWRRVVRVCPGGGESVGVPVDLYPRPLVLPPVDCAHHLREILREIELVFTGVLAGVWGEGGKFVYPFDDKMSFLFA
T1 sequence (P10236 whole entry): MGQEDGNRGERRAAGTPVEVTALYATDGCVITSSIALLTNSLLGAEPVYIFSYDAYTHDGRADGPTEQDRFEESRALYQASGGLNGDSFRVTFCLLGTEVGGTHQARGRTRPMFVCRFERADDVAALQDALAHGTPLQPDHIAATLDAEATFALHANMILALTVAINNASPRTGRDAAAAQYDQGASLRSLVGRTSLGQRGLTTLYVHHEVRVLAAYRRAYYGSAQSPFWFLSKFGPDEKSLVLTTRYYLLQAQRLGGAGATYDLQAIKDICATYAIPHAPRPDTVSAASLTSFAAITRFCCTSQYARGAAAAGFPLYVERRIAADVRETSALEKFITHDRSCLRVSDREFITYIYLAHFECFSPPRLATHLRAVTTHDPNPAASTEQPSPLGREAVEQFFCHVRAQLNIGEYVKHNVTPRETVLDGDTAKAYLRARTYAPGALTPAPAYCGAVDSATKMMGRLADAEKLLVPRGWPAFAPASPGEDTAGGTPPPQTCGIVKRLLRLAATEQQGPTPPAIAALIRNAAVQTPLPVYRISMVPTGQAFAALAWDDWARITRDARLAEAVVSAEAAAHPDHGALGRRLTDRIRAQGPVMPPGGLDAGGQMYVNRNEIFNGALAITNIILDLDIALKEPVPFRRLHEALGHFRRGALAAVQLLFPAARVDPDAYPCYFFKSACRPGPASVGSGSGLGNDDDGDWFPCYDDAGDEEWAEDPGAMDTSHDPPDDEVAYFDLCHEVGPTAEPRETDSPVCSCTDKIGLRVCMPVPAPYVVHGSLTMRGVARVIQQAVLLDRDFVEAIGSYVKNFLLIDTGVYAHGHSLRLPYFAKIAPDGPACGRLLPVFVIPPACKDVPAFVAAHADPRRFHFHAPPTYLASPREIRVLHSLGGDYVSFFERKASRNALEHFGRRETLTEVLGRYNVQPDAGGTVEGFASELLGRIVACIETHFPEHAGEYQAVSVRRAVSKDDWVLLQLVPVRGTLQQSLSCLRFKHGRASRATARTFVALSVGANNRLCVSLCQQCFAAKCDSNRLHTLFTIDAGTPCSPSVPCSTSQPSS
T1 sequence (P10189 whole entry): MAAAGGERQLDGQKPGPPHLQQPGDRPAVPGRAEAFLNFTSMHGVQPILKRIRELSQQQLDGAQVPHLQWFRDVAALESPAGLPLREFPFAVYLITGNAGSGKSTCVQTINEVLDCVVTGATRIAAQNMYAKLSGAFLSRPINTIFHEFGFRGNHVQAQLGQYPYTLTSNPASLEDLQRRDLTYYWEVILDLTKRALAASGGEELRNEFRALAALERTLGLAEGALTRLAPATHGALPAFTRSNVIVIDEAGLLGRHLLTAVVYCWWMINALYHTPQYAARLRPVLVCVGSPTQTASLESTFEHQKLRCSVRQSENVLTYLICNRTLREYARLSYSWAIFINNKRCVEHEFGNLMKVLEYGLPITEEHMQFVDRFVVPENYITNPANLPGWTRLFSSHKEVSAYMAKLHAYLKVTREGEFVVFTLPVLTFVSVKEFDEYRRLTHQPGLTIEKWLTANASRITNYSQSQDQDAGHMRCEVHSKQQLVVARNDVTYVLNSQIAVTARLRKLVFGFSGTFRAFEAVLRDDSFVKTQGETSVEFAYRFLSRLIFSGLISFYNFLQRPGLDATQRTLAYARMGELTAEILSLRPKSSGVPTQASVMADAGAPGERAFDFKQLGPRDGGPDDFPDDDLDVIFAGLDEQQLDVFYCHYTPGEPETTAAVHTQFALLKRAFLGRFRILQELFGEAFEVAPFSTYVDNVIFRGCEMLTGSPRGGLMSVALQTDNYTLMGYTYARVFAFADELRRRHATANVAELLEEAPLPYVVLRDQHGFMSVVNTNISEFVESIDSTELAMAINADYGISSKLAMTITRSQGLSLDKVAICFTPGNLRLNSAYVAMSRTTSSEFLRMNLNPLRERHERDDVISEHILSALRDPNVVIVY

Structure (SMILES) | EC50 [1, 7] [µM] | MCC at 192 h ([4]; Group 2 Table 1 entries) [µM] | IC50 ([5]; Group 2 Table 1 entries) [µM] | IC50 ([5]; Group 1 Table 1 entries) [µM] | EC50 [3, 12] [µM] | EC50 [2, 11] [µM] | also measured
Nc1nc(-c2ccc(NC(=O)[C@H]3CCC(=O)N3Cc3ccccc3)cc2)cs1 [Example 1] |  |  |  |  |  |  | EC50 [1, 6]: 80 µM; EC50 [2, 6]: 0.25 µM; EC50 ([3]; Human alphaherpesvirus 1, BHK-21, Group 1 Table 6 entries): 3.4 µM
CCCCNC(=O)Nc1ccc(-c2csc(N)n2)cc1 [Example 2] | 12 |  |  |  |  |  | EC50 [2, 7]: 0.6 µM; EC50 [3, 8]: 3.5 µM
Nc1nc(-c2ccc(NC(=O)NCCc3ccccn3)cc2)cs1 [Example 3] | > 93 | 93 | 5.2 |  |  |  | EC50 [3, 8]: 3.6 µM
CN(CCc1ccccn1)C(=O)[C@H](Cc1ccccc1)NC(=O)Nc1ccc(-c2csc(N)n2)cc1 [Example 9] | 36 |  |  |  |  |  | EC50 [2, 7]: 4.1 µM; EC50 [3, 8]: 2.9 µM
Nc1nc(-c2ccc(NC(=O)CCNC3CCc4ccccc43)cc2)cs1 (stereo not shown) [Example 9] |  |  |  |  |  |  | EC50 [1, 9]: > 10.4 µM; EC50 [2, 9]: 6 µM; EC50 [3, 10]: 0.95 µM
Nc1nc(-c2ccc(NC(=O)NCCCn3ccnc3)cc2)cs1 [Example 10] | > 48 | 48 | 4.7 |  |  |  | 
Nc1nc(-c2ccc(NC(=O)CCN(C(=O)c3cccnc3)C3CCc4ccccc43)cc2)cs1 (stereo not shown) [Example 11] |  |  |  |  |  |  | EC50 [1, 9]: 20 µM; EC50 [2, 9]: 15 µM; EC50 [3, 10]: 4 µM
Nc1nc(-c2ccc(NC(=O)CNCc3ccccn3)cc2)cs1 [Example 12] |  |  |  | 8 | 1.5 |  | EC50 [1, 11]: 84 µM; MCC at 192 h ([4]; Group 1 Table 1 entries): 84 µM
Nc1nc(-c2ccc(NC(=O)NCCN(Cc3ccccc3)Cc3ccccc3)cc2)cs1 [Example 16] | > 5 | 5 | 1.6 |  |  |  | 
Nc1nc(-c2ccc(NC(=O)NCc3ccccc3)cc2)cs1 [Example 20] | > 45 | 45 | 0.9 |  |  |  | 
Nc1nc(-c2ccc(NC(=O)NCc3ccc(Cl)cc3)cc2)cs1 [Example 21] | > 1 | 1 | 7.2 |  |  |  | 
Nc1nc(-c2ccc(NC(=O)NCc3cccc(F)c3)cc2)cs1 [Example 22] | > 8 | 8 | 1.3 |  |  |  | 
Nc1nc(-c2ccc(NC(=O)NCc3ccccc3F)cc2)cs1 [Example 23] | > 4 | 4 | 2 |  |  |  | 
Nc1nc(-c2ccc(NC(=O)NCCc3ccc(F)cc3)cc2)cs1 [Example 24] | > 5 | 5 | 30 |  |  |  | 
CN(C)c1ccc(CNC(=O)Nc2ccc(-c3csc(N)n3)cc2)cc1 [Example 25] | > 18 | 18 | 2.9 |  |  |  | 
C[C@H](NC(=O)Nc1ccc(-c2csc(N)n2)cc1)c1ccccc1 [Example 26] | > 74 | 74 | 0.59 |  |  |  | 
CC(C)(C)OC(=O)N(CCc1ccccn1)CC(=O)Nc1ccc(-c2csc(N)n2)cc1 [Example 101] |  |  |  | 2.2 | 0.74 | 1.9 | 
Nc1nc(-c2ccc(NC(=O)CN(CCC3CCCCC3)C(=O)C3CCCCC3)cc2)cs1 [Example 103] |  |  |  | 0.15 | 0.24 | > 41 | 
CN(C)S(=O)(=O)N(CC(=O)Nc1ccc(-c2csc(N)n2)cc1)Cc1ccccc1 [Example 106] |  |  |  | 1 | 0.16 | > 6 | 
Nc1nc(-c2ccc(NC(=O)CN(CC3CCCCC3)S(=O)(=O)N3CCOCC3)cc2)cs1 [Example 107] |  |  |  |  | 0.83 |  | MCC at 192 h ([4]; Group 1 Table 1 entries): 12 µM
Nc1nc(-c2ccc(NC(=O)CN(Cc3ccccc3)C(=O)OCc3ccccc3)cc2)cs1 [Example 109] |  |  |  | 0.31 | 0.2 | > 20 | 
CC(C)CN(CC(=O)Nc1ccc(-c2csc(N)n2)cc1)C(=O)OCc1ccccc1 [Example 110] |  |  |  | 3.2 | 1.6 | > 40 | 
Nc1nc(-c2ccc(NC(=O)CN(Cc3ccccc3)C(=O)Cc3cccnc3)cc2)cs1 [Example 113] |  |  |  | 2 |  |  | EC50 [1, 11]: > 50 µM; MCC at 192 h ([4]; Group 1 Table 1 entries): 50 µM
CCCC(CCC)N(CC(=O)Nc1ccc(-c2csc(N)n2)cc1)C(=O)OCc1ccccc1 [Example 141] |  |  |  | 4 | 3.5 | > 121 | 
CC(C)(C)CN(CC(=O)Nc1ccc(-c2csc(N)n2)cc1)C(=O)OC(C)(C)C [Example 142] |  |  |  | 6.3 | 2.4 | 4 | 
Nc1nc(-c2ccc(NC(=O)CN(Cc3ccccc3)S(=O)(=O)NCc3ccccc3)cc2)cs1 [Example 143] |  |  |  | 0.8 | 1 | > 64 | 
